Entries after “also recorded” stand apart in the source; their conditions may differ. Like-named read-outs stand apart in the source and are kept apart here. Each block holds one compound with its values, some of them ahead of it.
How the values were obtained:
Tumor [1] = conditions: Animals; cited from earlier work
Tumor [2] = conditions: Cells/Organ; cited from earlier work
SA + AV node = conditions: Cells/Organ; cited from earlier work
Airway mucosa [3] = conditions: Patients, cited from earlier work; for Mucociliary clearance: epithelia of cystic fibrosis patients; for Chloride secretion: observed in epithelia of healthy participants and cystic fibrosis patients
[4] = Solubility in isotonic aqueous solutions of sodium chloride; conditions: salts
Airway mucosa [5] = conditions: Cells/Organ; cited from earlier work
Tumor [6] = conditions: Patients; cited from earlier work
[7] = single arm study; cited from earlier work
[8] = tested on: non-small cell lung cancer; conditions: cited from earlier work
[9] = Cells/Organ; cited from earlier work
[10] = Animals; cited from earlier work
[11] = Animals; cited from earlier work; remark: listed apart in the source
[12] = Patients; cited from earlier work
[13] = low doses, intravenous; cited from earlier work
[14] = Cells/Organ; cited from earlier work; remark: listed apart in the source
[15] = infusions; rat kidney, rat lung, dog heart, rabbit lung, rat gut; cited from earlier work
[16] = intravenous; cited from earlier work
[17] = intramuscular; cited from earlier work
[18] = intravenous, cited from earlier work
[19] = tested on: tissue type plasminogen activator (tPA); conditions: infusions in humans; cited from earlier work
[20] = cited from earlier work
[21] = Stability of ATP solutions; format: physicochemical
Protocol: An example of a clinical procedure in the treatment of ALI and ARDS is as follows. After determination of baseline, pre-treatment hemodynamic variables, blood gases and pH values, an ATP dose escalation procedure is initiated. ATP is provided as a sterile solution in single use vials. […] Storage of the clinical solution is at controlled refrigerated temperature (2° C.-8° C. ). […] The concentration of the final sterile solution for the infusion is 8 mg/ml.
The product must be stored at controlled refrigerated temperature (2° C.-[…]). At pH 6.7-7.2, the sodium salt in aqueous solution is stable.

[22] = cited from earlier work; remark: listed apart in the source
[23] = cited from earlier work; for whole blood ATP concentration, higher than the pretreatment values: 24 hr of infusion, average
[24] = cited from earlier work; remark: listed apart in the source
[25] = Patients; cited from earlier work; remark: listed apart in the source
[26] = of seven children; infused directly into the pulmonary artery for 30 minutes to 30 hours; cited from earlier work
[27] = Patients; cited from earlier work; remark: listed apart in the source
[28] = Animals; cited from earlier work; remark: listed apart in the source
[29] = Patients; cited from earlier work; remark: listed apart in the source
[30] = in vivo; cited from earlier work
[31] = 50 or 65 microgram/kg/min for 96 hr, once every 4 weeks
[32] = ATP infusion rate 500-1000 μg/kg/min
[33] = ATP infusion rate ≦100 μg/kg/min
[34] = administration directly into the pulmonary artery or into the superior vena cava
[35] = healthy individuals, COPD patients, patients after surgical repair of congenital heart defects

solubility in isotonic aqueous solutions of sodium chloride [4]: high solubility
SMILES: Nc1ncnc2c1ncn2[C@@H]1O[C@H](CO)[C@@H](O)[C@H]1O [adenosine, reference compound]
Cancer treatment: Weight loss (Tumor [1]): Inhibited | Chemotherapy efficacy (Tumor [1]): Increased | Radiotherapy damage (Tumor [1]): Reduced | Radiotherapy efficacy (Tumor [1]): Increased | Radiotherapy survival rate (Tumor [1]): Increased | Tumor growth (Tumor [1]): Inhibited | Chemotherapy efficacy (Tumor [2]): Increased | Radiotherapy damage (Tumor [2]): Reduced | Radiotherapy efficacy (Tumor [2]): Increased | Tumor growth (Tumor [2]): Inhibited | SA + AV node conduction (SA + AV node): Inhibited | Mucociliary clearance (Airway mucosa [3]): Increased | Chloride secretion (Airway mucosa [3]): Increased | Chloride secretion (Airway mucosa [5]): Increased | Ciliary beat frequency (Airway mucosa [5]): Increased | Mucus secretion (Airway mucosa [5]): Increased | Surfactant secretion (Airway mucosa [5]): Increased | Water secretion (Airway mucosa [5]): Increased | Cancer treatment: Weight loss (Tumor [6]): Inhibited | Tumor growth (Tumor [6]): Inhibited

solubility in isotonic aqueous solutions of sodium chloride [4]: high solubility
SMILES: Nc1ncnc2c1ncn2[C@@H]1O[C@H](COP(=O)(O)OP(=O)(O)O)[C@@H](O)[C@H]1O [ADP, adenosine 5′-diphosphate]

solubility in isotonic aqueous solutions of sodium chloride [4]: high solubility
SMILES: Nc1ncnc2c1ncn2[C@@H]1O[C@H](COP(=O)(O)O)[C@@H](O)[C@H]1O [AMP, adenosine 5′-monophosphate]

SMILES: Nc1ncnc2c1ncn2[C@@H]1O[C@H](COP(=O)(O)OP(=O)(O)OP(=O)(O)O)[C@@H](O)[C@H]1O [ATP, adenosine 5′-triphosphate]
several metabolic functions [7]: beneficial | Cancer treatment: Weight loss (Tumor [1]): Inhibited | Chemotherapy efficacy (Tumor [1]): Increased | Radiotherapy damage (Tumor [1]): Reduced | Radiotherapy efficacy (Tumor [1]): Increased | Radiotherapy survival rate (Tumor [1]): Increased | Tumor growth (Tumor [1]): Inhibited | hematologic, renal, hepatic, or gastrointestinal toxicity [8, 31]: No significant | patients exhibiting stable disease after treatment [8, 31]: majority of patients | tumor shrinking [8, 31]: no significant | overall survival ([8]; as compared with historical data): beneficial effects | patient performance status ([8]; in vivo): beneficial effects | weight gain ([8]; in vivo): beneficial effects | Chemotherapy efficacy (Tumor [2]): Increased | Radiotherapy damage (Tumor [2]): Reduced | Radiotherapy efficacy (Tumor [2]): Increased | Tumor growth (Tumor [2]): Inhibited | Shock: Organ function [9]: Improved | Shock: Organ function [10]: Improved | Shock: Survival rate [10]: Increased | Anaesthetic requirement [11]: Reduced | Pain [11]: Reduced | Shock: Survival rate [12]: Increased | resolving pulmonary hypertension [13]: effective | Glycogenolysis [14]: Increased | tissue injury during reperfusion after a preceding period of ischemia [15]: protective effects | Cardiac Output [16]: enhances | portal and total hepatic blood flow [16]: enhances | renal and hepatic microcirculation [16]: enhances | protecting the intestinal mucosal structure and function [17]: effective | Cardiac Output [18, 32]: Increase | Heart Rate [18, 32]: Increase | Pulmonary Arterial Pressure [18, 32]: Decrease | Pulmonary Vascular Resistance [18, 32]: Decrease | Systemic Arterial Pressure [18, 32]: Decrease | Systemic Vascular Resistance [18, 32]: Decrease | Cardiac Output [18, 33]: Small Increase | Heart Rate [18, 33]: No Change | Pulmonary Arterial Pressure [18, 33]: Decrease | Pulmonary Vascular Resistance [18, 33]: Decrease | Systemic Arterial Pressure [18, 33]: did not alter; also recorded: No Change | Systemic Vascular Resistance [18, 33]: Small Decrease | SA + AV node conduction (SA + AV node): Inhibited | release of tissue-type plasminogen activator (tPA) [19]: profound acute release; also recorded: marked release | Mucociliary clearance (Airway mucosa [3]): Increased | Chloride secretion (Airway mucosa [3]): Increased | Pulmonary Arterial Pressure [20, 34]: reducing | Pulmonary Vascular Resistance [20, 34]: reducing | Systemic Arterial Pressure [20, 34]: without any direct effect | Systemic Vascular Resistance [20, 34]: without any direct effect | Pulmonary Arterial Pressure [20, 35]: significantly decreasing | Pulmonary Vascular Resistance [20, 35]: significantly decreasing | stability of the final ATP solutions at room temperature ([21]; final infusion solution 8 mg/ml in 0.5 normal saline, room temperature): at least 96 hours | stability of the sodium salt in aqueous solution ([21]; pH 6.7-7.2): stable | maximum tolerated dose ([22]; 96-hr infusions, advanced non-small cell lung cancer): 50 microgram/kg/min | highest dose easily tolerated ([22]; patients suffering from other cancers): 100 microgram/kg/min | whole blood ATP concentration, higher than the pretreatment values ([23]; 50 microgram/kg/min): 63% | whole blood ATP concentration, higher than the pretreatment values ([23]; 75 microgram/kg/min): 67% | whole blood ATP concentration, higher than the pretreatment values ([23]; 100 microgram/kg/min): 113% | blood concentrations of ATP between 24 and 96 hr of the infusion ([23]; in vivo): relatively constant or slightly declined | Chloride secretion (Airway mucosa [5]): Increased | Ciliary beat frequency (Airway mucosa [5]): Increased | Mucus secretion (Airway mucosa [5]): Increased | Surfactant secretion (Airway mucosa [5]): Increased | Water secretion (Airway mucosa [5]): Increased | severity of adverse experiences ([24]; 30-hr infusions, 20 up to 75 microgram/kg/min): generally mild | Quality of Life domains ([24]; in vivo): improvements | body weight ([24]; in vivo): beneficial effects | electrocardiograms in patients with chest discomfort ([24]; in vivo): did not exhibit changes suggestive of myocardial ischemia | time to resolution of all side effects after lowering the rate of ATP infusion ([24]; in vivo): within minutes | voluntary muscle strength ([24]; in vivo): beneficial effects | Pulmonary hypertension [25]: Reduced | children in whom hypertension crises were completely resolved and hemodynamic stability restored [26]: 4 children | SA + AV node conduction [27]: Inhibited | Supraventricular tachycardias [27]: Inhibited | Pulmonary hypertension [28]: Reduced | Anaesthetic requirement [29]: Reduced | Blood pressure during surgery [29]: Reduced | Opioid requirement after surgery [29]: Reduced | Pain [29]: Reduced | Cancer treatment: Weight loss (Tumor [6]): Inhibited | Tumor growth (Tumor [6]): Inhibited | survival [30]: significant positive effects

From patent US20030109486A1 (priority 2001, published 2003)
